In paper PMC10451629, “Evaluation of the Effects of Heteroaryl Ethylene Molecules in Combination with Antibiotics: A Preliminary Study on Control Strains” (Antibiotics, 2023):
pIC50: −log10 of the molar value. Values after ≈ are worked out from the molar mass of the structure shown. Like-named read-outs stand apart in the source and are kept apart here.

Legend:
[1] = tested on: CaCo2 colon-rectal cancer cell line; design: method as in in-house dataset; Log(IC50) 48h: unit not given here; conditions: in-house dataset previously tested by the authors' groups, ref in-house dataset, cited from earlier work; for pIC50: 48h
S. aureus ATCC29213 = conditions: QSAR dataset, cited from earlier work
S. aureus ATCC 12598 = assay: Broth microdilution MIC; type: cell-based, Staphylococcus aureus; conditions: Staphylococcus aureus, ATCC12598
[2] = tested on: S. aureus ATCC BAA-1556 USA300; assay: Broth microdilution MIC; type: cell-based, Staphylococcus aureus
S. aureus ATCC 29213 = assay: Broth microdilution MIC; type: cell-based; conditions: Staphylococcus aureus, ATCC29213
E. faecalis ATCC 29212 = assay: Broth microdilution MIC; type: cell-based, Enterococcus faecalis; conditions: for MIC: Enterococcus faecalis
[3] = tested on: CaCo-2 (ATCC HTB-37) colon–rectal cancer cell line; assay: MTT cytotoxicity assay on CaCo-2 cells; type: cell-based, human; conditions: for Percentage of cell growth, antibiotic / Percentage of cell growth, antibiotic + PB4 0.2 µM: CaCo-2; for pIC50: Homo sapiens, CaCo-2 cell line, MTT
Experimental: To fully assess the biological activity of the new molecules, they were tested at different concentrations on the CaCo-2 (ATCC HTB-37) colon–rectal cancer cell line. These human cancer cells were exposed to compound solutions ranging in concentration from 100 µM to 0.01 µM. As a reference compound for these assays, we used 5-Fluorouracil (5-FU), a pyrimidine analog from the antimetabolite family.
The MTT assay was also performed for the selected antibiotics to evaluate the effect of their combined treatment with PB4.
To evaluate the effect of the heteroaryl ethylene compounds and the antibiotics, an MTT ([3-(4,5-dimethylthiazol-2-yl)-2,5-diphenyltetrazolium bromide]) assay was performed as previously described. […] Both concentrations were also tested in combination with PB4 0.2 µM. All antibiotics were provided by Thermo Scientific^TM Oxoid^TM, Basingstoke, UK. Twenty-four hours after plating, the cells were treated with 20 μL of each solution. Untreated cells were used as controls. […] The IC50 values were calculated by nonlinear regression analysis using GraphPad Prism 6.0 software.

[4] = in-house database, previously tested, ref Unpublished results

| Compound | pIC50 [1] | Log(IC50) 48h [1] | also measured |
| --- | --- | --- | --- |
| C[n+]1ccccc1/C=C/c1ccc(N(c2ccccc2)c2ccccc2)cc1 [GC VII 47] | 6.00 | 0 |  |
| C[n+]1c(/C=C/c2cc(Cl)ccc2O)cccc1/C=C/c1cc(Cl)ccc1O [BCM12] |  |  | MIC (S. aureus ATCC29213; [4]): > 128 µg/mL |
| CCCCN(CCCC)c1ccc(-c2ccc(/C=C3\CCCc4c[n+](CC)ccc43)s2)s1 [PB8] |  |  | MIC (S. aureus ATCC29213): 2 µg/mL |
| CO[C@H]1/C=C/O[C@@]2(C)Oc3c(C)c(O)c4c(O)c(c(/C=N/N5CCN(C)CC5)c(O)c4c3C2=O)NC(=O)/C(C)=C\C=C\[C@H](C)[C@H](O)[C@@H](C)[C@@H](O)[C@@H](C)[C@H](OC(C)=O)[C@@H]1C [Rifampin, rifampin, reference compound] |  |  | MIC (S. aureus ATCC 12598): 0.125 µg/mL (≈ 0.152 µM); Reduction of antibiotic MIC by PB4 ([2]; S. aureus USA 300, antibiotic + PB4 vs antibiotic alone): 4 -fold log reduction; MIC ([2]; Staphylococcus aureus, S. aureus ATCC BAA-1556 USA300, substance alone): 0.125 µg/mL (≈ 0.152 µM); MIC (S. aureus ATCC 29213): 0.125 µg/mL (≈ 0.152 µM); MIC of antibiotic in combination with PB4 (E. faecalis ATCC 29212; E. faecalis ATCC 29212, PB4 at fixed 0.125 μg/mL (0.24 μM), a quarter of an MIC value): 0.006 µg/mL; Reduction of antibiotic MIC by PB4 (E. faecalis ATCC 29212; E. faecalis ATCC 29212, antibiotic + PB4 vs antibiotic alone): 2 -fold log reduction; MIC (E. faecalis ATCC 29212; ATCC29212): 0.125 µg/mL (≈ 0.152 µM); MIC (E. faecalis ATCC 29212; ATCC29212, E. faecalis ATCC 29212, substance alone, read-out: MIC): 0.25 µg/mL (≈ 0.304 µM); Percentage of cell growth, antibiotic ([3]; antibiotic alone at MIC for E. faecalis ATCC 29212, 24 h): 133.7%; Percentage of cell growth, antibiotic ([3]; antibiotic alone at MIC for E. faecalis ATCC 29212, 48 h): 282.6%; Percentage of cell growth, antibiotic ([3]; antibiotic alone at sub-MIC (half-MIC), 24 h): 146.6%; Percentage of cell growth, antibiotic ([3]; antibiotic alone at sub-MIC (half-MIC), 48 h): 265.6%; Percentage of cell growth, antibiotic + PB4 0.2 µM ([3]; antibiotic at MIC + PB4 0.2 µM, 24 h): 126.9%; Percentage of cell growth, antibiotic + PB4 0.2 µM ([3]; antibiotic at MIC + PB4 0.2 µM, 48 h): 158.9%; Percentage of cell growth, antibiotic + PB4 0.2 µM ([3]; antibiotic at sub-MIC + PB4 0.2 µM, 24 h): 130.6%; Percentage of cell growth, antibiotic + PB4 0.2 µM ([3]; antibiotic at sub-MIC + PB4 0.2 µM, 48 h): 163.7% |
| CCCCN(CCCC)c1ccc(-c2ccc(/C=C/c3ccc(C(=O)O)c[n+]3C)s2)s1 [BCG3] | 5.10 | 0.90 |  |
| CCn1cc(/C=C/c2sc3ccccc3[n+]2CC)c2ccccc21 [SBT, reference compound] |  |  | MIC (S. aureus ATCC29213): 1 µg/mL |
| CC[n+]1ccc2c(c1)CCC/C2=C\c1ccc(-c2ccc(Cl)cc2)o1 [PB7] |  |  | MIC (S. aureus ATCC29213): 4 µg/mL |
| CCCCN(CCCC)c1ccc(-c2ccc(/C=C/c3ccc4ccccc4[n+]3C)s2)s1 [PB2] |  |  | MIC (S. aureus ATCC29213): 4 µg/mL |
| C[n+]1ccccc1/C=C/c1ccc2ccc3c4c2c1C=CC4C=CC3 (stereo not shown) [GC VI 3] | 6.05 | -0.0458 |  |
| CC[n+]1ccc2c(c1)CCC/C2=C\c1ccc(N(C)C)cc1 [BCM3] | 5.87 | 0.13 | MIC (S. aureus ATCC29213; [4]): 64 µg/mL |
| C[n+]1ccc(/C=C/c2ccc(-c3cc(Cl)ccc3Cl)o2)cc1 [PB6] |  |  | MIC (S. aureus ATCC29213): 4 µg/mL |
| CN(C)c1ccc(/C=C/C=C/c2cc[n+](C)cc2)cc1 [GC VI 45] | 4.80 | 1.20 |  |
| O=c1[nH]cc(F)c(=O)[nH]1 [5-FU, 5-Fluorouracil] |  |  | pIC50 ([3]; Caco-2, 24 h, 24 h of treatment, read-out: IC50 at 24 h): ~4.57; pIC50 ([3]; Caco-2, 48 h, 48 h of treatment, read-out: IC50 at 48 h): 4.89 |
| CN(C)c1ccc(/C=C/c2cc[n+](C)cc2)cc1 [GC VI 17] | 5.10 | 0.903 |  |
| CCOC(=O)C(C#N)c1ccc(/C=C/c2cc[n+](C)cc2)n1C (stereo not shown) [GC VII 16] | 4.15 | 1.85 |  |
| C[n+]1c(/C=C/c2ccc(-c3ccc(N4CCCCC4)s3)s2)ccc2ccccc21 [BC1] | 4.70 | 1.30 |  |
| C[n+]1c(/C=C/c2ccnc(-c3cc(/C=C/c4ccc5ccccc5[n+]4C)ccn3)c2)ccc2ccccc21 [GC VI 71] | 4.29 | 1.71 |  |
| C[n+]1ccccc1/C=C/c1ccc2ccccc2c1 [GC VII 46] | 5.26 | 0.740 |  |
| C[n+]1c(/C=C/c2ccc(N(c3ccccc3)c3ccccc3)cc2)ccc2ccccc21 [GC VI 14] | 5.40 | 0.602 |  |
| CN(C)c1ccc(/C=C/C=C/c2cccc[n+]2C)cc1 [GF I 25] | 5.00 | 1 |  |
| Cn1c(/C=C/c2ccncc2)ccc1/C=C/c1cc[n+](C)cc1 [GF I 30] | 4.30 | 1.70 |  |
| CC[n+]1ccc2c(c1)CCC/C2=C\c1ccccc1O [BCNAc1] |  |  | MIC (S. aureus ATCC29213; [4]): > 128 µg/mL |
| CCn1cc(/C=C/c2ccc3ccccc3[n+]2CC)c2ccccc21 [SQL, reference compound] |  |  | MIC (S. aureus ATCC29213): 4 µg/mL |
| Cn1c(/C=C/C2=C(C#N)C(=C(C#N)C#N)OC2(C)C)ccc1/C=C/c1cc[n+](C)cc1 [GF I 32] | 4.49 | 1.51 |  |
